# Laboratory results as given in ChEMBL document CHEMBL1201862, “PubChem BioAssay data set” (2004).
#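 Results reflect a 48-hour exposure of cells in 96-well plates to compound at five concentrations. At the GI50, growth is halved.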 Active and inactive are the calls of the source. Cut-off read from the data, not from the text of the source: active = GI50 up to about 1.1 µM and inactive = higher.
# Assays:
# Experiment in all cases: inhibition of tumour cell growth, NCI panel, 48 h
# 786-0 = system: 786-0
# A498 = system: A498
# A549 = system: A549
# ACHN = system: ACHN
# BT-549 = system: BT-549
# CAKI-1 = system: CAKI-1
# CCRF-CEM = system: CCRF-CEM
# COLO 205 = system: COLO 205
# DU-145 = system: DU-145
# EKVX = system: EKVX
# HCC 2998 = system: HCC 2998
# HCT-116 = system: HCT-116
# HCT-15 = system: HCT-15
# HL-60 = system: HL-60
# HOP-62 = system: HOP-62
# HOP-92 = system: HOP-92
# HT-29 = system: HT-29
# Hs-578T = system: Hs-578T
# IGROV-1 = system: IGROV-1
# K562 = system: K562
# KM12 = system: KM12
# LOX IMVI = system: LOX IMVI
# M14 = system: M14
# MCF7 = system: MCF7
# MDA-MB-231 = system: MDA-MB-231
# MDA-MB-435 = system: MDA-MB-435
# MOLT-4 = system: MOLT-4
# NCI-H226 = system: NCI-H226
# NCI-H23 = system: NCI-H23
# NCI-H460 = system: NCI-H460
# NCI-H522 = system: NCI-H522
# NCI/ADR-RES = system: NCI/ADR-RES
# OVCAR-3 = system: OVCAR-3
# OVCAR-4 = system: OVCAR-4
# OVCAR-5 = system: OVCAR-5
# OVCAR-8 = system: OVCAR-8
# PC-3 = system: PC-3
# RPMI-8226 = system: RPMI-8226
# RXF 393 = system: RXF 393
# SF-268 = system: SF-268
# SF-295 = system: SF-295
# SF-539 = system: SF-539
# SK-MEL-28 = system: SK-MEL-28
# SK-MEL-2 = system: SK-MEL-2
# SK-MEL-5 = system: SK-MEL-5
# SK-OV-3 = system: SK-OV-3
# SN12C = system: SN12C
# SNB-19 = system: SNB-19
# SNB-75 = system: SNB-75
# SR = system: SR
# SW-620 = system: SW-620
# T47D = system: T47D
# TK-10 = system: TK-10
# U-251 = system: U-251
# UACC-257 = system: UACC-257
# UACC-62 = system: UACC-62
# UO-31 = system: UO-31
# MDA-N = system: MDA-N
# Malme-3M = system: Malme-3M
smiles,measurement,setting,value
O=Cc1ccc(-c2cccc([N+](=O)[O-])c2)s1,GI50,786-0,80 µM (inactive)
same,GI50,A498,16.9 µM (inactive)
same,GI50,A549,> 100 µM (inactive)
same,GI50,ACHN,> 100 µM (inactive)
same,GI50,BT-549,81.1 µM (inactive)
same,GI50,CAKI-1,> 100 µM (inactive)
same,GI50,CCRF-CEM,96.2 µM (inactive)
same,GI50,COLO 205,> 100 µM (inactive)
same,GI50,DU-145,61 µM (inactive)
same,GI50,EKVX,71.4 µM (inactive)
same,GI50,HCC 2998,> 100 µM (inactive)
same,GI50,HCT-116,> 100 µM (inactive)
same,GI50,HCT-15,> 100 µM
same,GI50,HL-60,64.4 µM (inactive)
same,GI50,HOP-62,> 100 µM (inactive)
same,GI50,HOP-92,> 100 µM (inactive)
same,GI50,HT-29,> 100 µM (inactive)
same,GI50,Hs-578T,53.6 µM (inactive)
same,GI50,IGROV-1,> 100 µM (inactive)
same,GI50,K562,72.1 µM (inactive)
same,GI50,KM12,> 100 µM (inactive)
same,GI50,LOX IMVI,> 100 µM (inactive)
same,GI50,M14,> 100 µM (inactive)
same,GI50,MCF7,> 100 µM (inactive)
same,GI50,MDA-MB-231,> 100 µM (inactive)
same,GI50,MDA-MB-435,> 100 µM (inactive)
same,GI50,MOLT-4,41.2 µM (inactive)
same,GI50,NCI-H226,67.5 µM (inactive)
same,GI50,NCI-H23,> 100 µM (inactive)
same,GI50,NCI-H460,> 100 µM (inactive)
same,GI50,NCI-H522,> 100 µM (inactive)
same,GI50,NCI/ADR-RES,94.6 µM (inactive)
same,GI50,OVCAR-3,> 100 µM (inactive)
same,GI50,OVCAR-4,> 100 µM (inactive)
same,GI50,OVCAR-5,> 100 µM (inactive)
same,GI50,OVCAR-8,80.9 µM (inactive)
same,GI50,PC-3,> 100 µM (inactive)
same,GI50,RPMI-8226,67 µM (inactive)
same,GI50,RXF 393,54.3 µM (inactive)
same,GI50,SF-268,> 100 µM (inactive)
same,GI50,SF-295,> 100 µM (inactive)
same,GI50,SF-539,> 100 µM (inactive)
same,GI50,SK-MEL-28,> 100 µM (inactive)
same,GI50,SK-MEL-2,> 100 µM (inactive)
same,GI50,SK-MEL-5,> 100 µM (inactive)
same,GI50,SK-OV-3,> 100 µM (inactive)
same,GI50,SN12C,> 100 µM (inactive)
same,GI50,SNB-19,> 100 µM (inactive)
same,GI50,SNB-75,70.8 µM (inactive)
same,GI50,SR,56.5 µM (inactive)
same,GI50,SW-620,> 100 µM (inactive)
same,GI50,T47D,86.5 µM (inactive)
same,GI50,TK-10,> 100 µM (inactive)
same,GI50,U-251,45.4 µM (inactive)
same,GI50,UACC-257,> 100 µM (inactive)
same,GI50,UACC-62,> 100 µM (inactive)
same,GI50,UO-31,65.8 µM (inactive)
COC(=O)c1csc(-c2csc(CCNC(=O)OC(C)(C)C)n2)n1,GI50,786-0,> 100 µM (inactive)
same,GI50,A498,26.1 µM (inactive)
same,GI50,A549,> 100 µM (inactive)
same,GI50,ACHN,> 100 µM (inactive)
same,GI50,BT-549,40.4 µM (inactive)
same,GI50,CCRF-CEM,43.5 µM (inactive)
same,GI50,COLO 205,> 100 µM (inactive)
same,GI50,DU-145,> 100 µM (inactive)
same,GI50,EKVX,> 100 µM (inactive)
same,GI50,HCC 2998,> 100 µM (inactive)
same,GI50,HCT-116,> 100 µM (inactive)
same,GI50,HCT-15,> 100 µM
same,GI50,HL-60,> 100 µM (inactive)
same,GI50,HOP-62,> 100 µM (inactive)
same,GI50,HOP-92,> 100 µM (inactive)
same,GI50,HT-29,> 100 µM (inactive)
same,GI50,Hs-578T,> 100 µM (inactive)
same,GI50,IGROV-1,> 100 µM (inactive)
same,GI50,K562,> 100 µM (inactive)
same,GI50,KM12,> 100 µM (inactive)
same,GI50,M14,> 100 µM (inactive)
same,GI50,MCF7,> 100 µM (inactive)
same,GI50,MDA-MB-435,> 100 µM (inactive)
same,GI50,MDA-N,> 100 µM (inactive)
same,GI50,MOLT-4,42.7 µM (inactive)
same,GI50,Malme-3M,> 100 µM (inactive)
same,GI50,NCI-H226,> 100 µM (inactive)
same,GI50,NCI-H23,> 100 µM (inactive)
same,GI50,NCI-H460,> 100 µM (inactive)
same,GI50,NCI/ADR-RES,54.3 µM (inactive)
same,GI50,OVCAR-3,> 100 µM (inactive)
same,GI50,OVCAR-5,> 100 µM (inactive)
same,GI50,OVCAR-8,> 100 µM (inactive)
same,GI50,PC-3,56.1 µM (inactive)
same,GI50,RPMI-8226,> 100 µM (inactive)
same,GI50,RXF 393,> 100 µM (inactive)
same,GI50,SF-268,> 100 µM (inactive)
same,GI50,SF-295,> 100 µM (inactive)
same,GI50,SF-539,> 100 µM (inactive)
same,GI50,SK-MEL-28,> 100 µM (inactive)
same,GI50,SK-MEL-5,90.6 µM (inactive)
same,GI50,SK-OV-3,> 100 µM (inactive)
same,GI50,SN12C,> 100 µM (inactive)
same,GI50,SNB-19,> 100 µM (inactive)
same,GI50,SNB-75,51.8 µM (inactive)
same,GI50,SR,59.7 µM (inactive)
same,GI50,SW-620,> 100 µM (inactive)
same,GI50,TK-10,> 100 µM (inactive)
same,GI50,U-251,> 100 µM (inactive)
same,GI50,UACC-257,> 100 µM (inactive)
same,GI50,UACC-62,59.7 µM (inactive)
same,GI50,UO-31,> 100 µM (inactive)
